Measured values: PubChem BioAssay (NCI)
Values joined by “and” are separate entries in the source; they are usually repeats but may differ in a detail not shown here. Equal values may be shown once.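 Tested at 5 concentrations; 48 h exposure; 96-well plates; endpoints linearly interpolated, else capped at highest concentration. GI50 is the concentration that inhibits growth by half. Definition used: TGI = concentration required for complete inhibition of growth.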

What was measured:
Test in all cases: DTP human tumour cell line panel, 48 h
[1] = system: SF-268 CNS
[2] = system: HCT-15 colon
[3] = system: SW-620 colon
[4] = system: OVCAR-4 ovarian
[5] = system: RXF 393 renal
[6] = system: NCI-H23 lung
[7] = system: HCC-2998 colon
[8] = system: UO-31 renal
[9] = system: SN12C renal
[10] = system: OVCAR-3 ovarian

## CN1CC[C@@H](c2c(O)cc(O)c3c(=O)cc(-c4ccccc4Cl)oc23)[C@@H](O)C1
[1]
  GI50: 0.0577 µM and 0.0288 µM
[2]
  GI50: 0.0476 µM
[3]
  GI50: 0.0594 µM and 0.0653 µM
  TGI: 23.2 µM
[4]
  GI50: 0.17 µM
  TGI: 0.68 µM and 3.61 µM
[5]
  GI50: 0.0481 µM and 0.0218 µM and 0.0196 µM
  TGI: 0.0892 µM and 0.0495 µM and 0.0428 µM
[6]
  GI50: 0.0908 µM and 0.103 µM and 0.0453 µM
  TGI: 0.23 µM and 0.301 µM and 0.189 µM
[7]
  GI50: 0.137 µM and 0.0417 µM
  TGI: 0.312 µM and 0.162 µM
[8]
  GI50: 0.0713 µM and 0.0363 µM and 0.0238 µM
  TGI: 0.876 µM and 0.164 µM and 1.18 µM
[9]
  GI50: 0.213 µM
  TGI: 13.2 µM
[10]
  GI50: 0.0636 µM and 0.0375 µM and 0.0256 µM
  TGI: > 19.4 µM

## CC[C@H](C)N(CCN)C(=O)c1cc2ccccc2c(-c2ccccc2Cl)n1
[1]
  TGI: 7.81 µM
[2]
  TGI: 16.1 µM
[3]
  TGI: 30 µM
[4]
  TGI: 30.1 µM
[5]
  TGI: 19.7 µM
[6]
  TGI: 28.6 µM
[7]
  TGI: 9.06 µM
[8]
  TGI: 25.3 µM
[9]
  TGI: 32.8 µM
[10]
  TGI: 34 µM

## COc1ccc2c(c1)[nH]c(=O)c1c3cc(C)c(C)cc3cn21
[1]
  GI50: < 0.01 µM
  TGI: 1.45 µM
[2]
  GI50: < 0.0142 µM
  TGI: 0.363 µM
[3]
  GI50: < 0.01 µM
  TGI: 1.47 µM
[4]
  GI50: 0.032 µM
  TGI: 3.95 µM
[5]
  GI50: < 0.01 µM
  TGI: 1.22 µM
[6]
  GI50: 0.0305 µM
  TGI: 0.392 µM
[7]
  GI50: 0.0235 µM
  TGI: 0.0802 µM
[8]
  GI50: < 0.0119 µM
  TGI: 1.72 µM
[9]
  GI50: < 0.0192 µM
  TGI: 1.74 µM
[10]
  GI50: < 0.01 µM
  TGI: < 0.0143 µM

## C=CCn1c2c(c3ccccc3c1=O)C(=O)c1ccccc1-2
[1]
  TGI: > 100 µM
[2]
  TGI: > 100 µM
[3]
  TGI: > 100 µM
[4]
  TGI: > 100 µM
[5]
  TGI: > 100 µM
[6]
  TGI: > 100 µM
[7]
  TGI: > 100 µM
[8]
  TGI: > 100 µM
[9]
  TGI: > 100 µM
[10]
  TGI: > 100 µM

## CN1CCN(CN2C(=O)C3C4C=CC(C3C2=O)C2C3C(=O)N(CN5CCN(C)CC5)C(=O)C3C42)CC1 (stereo not drawn)
[1]
  TGI: 50.6 µM and > 62.6 µM and 33.9 µM
[2]
  TGI: 34.8 µM and 42.1 µM and 30.3 µM
[3]
  TGI: 43.2 µM and > 60.8 µM and 35.1 µM
[4]
  TGI: 38.4 µM and 45.1 µM and 53.5 µM
[5]
  TGI: 41.4 µM and 34.7 µM and 36.2 µM
[6]
  TGI: 43.9 µM and 39.6 µM and 75.2 µM
[7]
  TGI: 89.2 µM and 51.5 µM and 79 µM
[8]
  TGI: 76.8 µM and > 67.8 µM and > 100 µM
[9]
  TGI: 43.7 µM and 41.9 µM and 52.8 µM
[10]
  TGI: 48.2 µM and 57.6 µM and 75.5 µM

## O=C(CNc1nncs1)NO
[1]
  TGI: > 100 µM
[2]
  TGI: > 100 µM
[3]
  TGI: > 100 µM
[4]
  TGI: > 100 µM
[5]
  TGI: > 100 µM
[6]
  TGI: > 100 µM
[7]
  TGI: > 100 µM
[8]
  TGI: > 100 µM
[9]
  TGI: > 100 µM
[10]
  TGI: > 100 µM

## COc1cc(-c2nn(-c3ccc(NC(=O)c4ccc(Cl)c(Cl)c4)cc3)cc2-c2ccncc2)ccc1Cl
[1]
  GI50: > 100 µM
  TGI: > 100 µM
[2]
  GI50: 2.68 µM
  TGI: > 100 µM
[3]
  GI50: 5.63 µM
  TGI: > 100 µM
[4]
  GI50: 23.4 µM
  TGI: > 100 µM
[5]
  GI50: 1.5 µM
  TGI: 4.53 µM
[6]
  GI50: 38.4 µM
  TGI: > 100 µM
[7]
  GI50: 31.8 µM
  TGI: > 100 µM
[8]
  GI50: 2.73 µM
  TGI: 9.85 µM
[9]
  GI50: 5.11 µM
  TGI: > 100 µM
[10]
  GI50: > 100 µM
  TGI: > 100 µM

## COc1cc(/C(C#N)=C/c2ccc3c(c2OC)OCO3)cc2c1OCO2
[1]
  GI50: 0.0969 µM
  TGI: 15.8 µM
[2]
  GI50: 0.0748 µM
  TGI: > 100 µM
[3]
  GI50: 0.0412 µM
  TGI: > 100 µM
[4]
  GI50: 1.45 µM
  TGI: > 100 µM
[5]
  GI50: 0.174 µM
  TGI: 0.753 µM
[6]
  GI50: 0.162 µM
  TGI: 11.6 µM
[7]
  GI50: 0.182 µM
  TGI: 10.8 µM
[8]
  GI50: 2.09 µM
  TGI: > 100 µM
[9]
  GI50: 0.695 µM
  TGI: > 100 µM
[10]
  GI50: 0.0272 µM
  TGI: 0.0774 µM

## CC1=C(C(=O)Nc2ccccc2C)C(c2ccccc2)C(C(=O)Nc2ccccc2C)=C(C)N1
[1]
  TGI: > 100 µM
[2]
  TGI: > 100 µM
[3]
  TGI: > 100 µM
[4]
  TGI: > 100 µM
[5]
  TGI: 71.6 µM
[6]
  TGI: > 100 µM
[7]
  TGI: > 100 µM
[8]
  TGI: > 100 µM
[9]
  TGI: > 100 µM
[10]
  TGI: > 100 µM

## Cc1cc(-c2ncc(CC(=O)Nc3ccc(-c4cnccn4)cn3)cc2C)ccn1
[1]
  GI50: 96 µM
  TGI: > 100 µM
[2]
  GI50: 38.4 µM
  TGI: > 100 µM
[3]
  GI50: 98.7 µM
  TGI: > 100 µM
[4]
  GI50: 6.11 µM
  TGI: > 100 µM
[5]
  GI50: 42.2 µM
  TGI: > 100 µM
[6]
  GI50: 23.6 µM
  TGI: > 100 µM
[7]
  GI50: > 100 µM
  TGI: > 100 µM
[8]
  GI50: 12.7 µM
  TGI: > 100 µM
[9]
  GI50: 91.7 µM
  TGI: > 100 µM
[10]
  GI50: 41.2 µM
  TGI: > 100 µM

## CCOc1ccccc1NC(=O)C(=O)CC(=O)c1c(C)n([O-])c2ccccc2[n+]1=O
[1]
  TGI: > 100 µM
[2]
  TGI: > 100 µM
[3]
  TGI: > 100 µM
[4]
  TGI: > 100 µM
[5]
  TGI: > 100 µM
[6]
  TGI: > 100 µM
[7]
  TGI: > 100 µM
[8]
  TGI: > 100 µM
[9]
  TGI: > 100 µM
[10]
  TGI: 75.8 µM

## COc1cc(O)c([C@@H]2C[C@H](CCc3ccc(O)cc3)O[C@H](c3ccc(O)cc3)C2)c(O)c1C(=O)/C=C/c1ccc(O)cc1
[1]
  GI50: 2.86 µM
  TGI: 24.4 µM
[2]
  GI50: 2.45 µM
  TGI: 6.88 µM
[3]
  GI50: 2.24 µM
  TGI: 6.12 µM
[4]
  GI50: 3.8 µM
  TGI: 29.5 µM
[5]
  GI50: 2.48 µM
  TGI: 5.64 µM
[6]
  GI50: 2.57 µM
  TGI: 5.71 µM
[7]
  GI50: 0.558 µM
  TGI: 1.73 µM
[8]
  GI50: 2.9 µM
  TGI: 7.96 µM
[9]
  GI50: 3.23 µM
  TGI: 13.8 µM
[10]
  GI50: 2.69 µM
  TGI: 7.16 µM

## Cc1nc2c(nc1C)C(=O)c1cc(O)ccc1C2=O
[1]
  TGI: > 100 µM
[2]
  TGI: > 67.3 µM
[3]
  TGI: > 100 µM
[4]
  TGI: > 100 µM
[5]
  TGI: > 100 µM
[6]
  TGI: > 100 µM
[7]
  TGI: > 100 µM
[8]
  TGI: > 100 µM
[9]
  TGI: > 100 µM
[10]
  TGI: > 100 µM

## Nc1nc(SCc2ccccn2)c2ncn(C3CCCC3)c2n1
[1]
  TGI: > 100 µM
[2]
  TGI: > 100 µM
[3]
  TGI: > 100 µM
[4]
  TGI: > 100 µM
[5]
  TGI: > 100 µM
[6]
  TGI: > 100 µM
[7]
  TGI: > 100 µM
[8]
  TGI: 32.7 µM
[9]
  TGI: > 100 µM
[10]
  TGI: > 100 µM

## CN(C)c1cccc2c(S(=O)(=O)N[C@H]3CC[C@H]4[C@@H]5CCc6cc(O)ccc6[C@H]5CC[C@]34C)cccc12
[1]
  GI50: 3.03 µM
  TGI: 15 µM
[2]
  GI50: 0.951 µM
  TGI: 8.38 µM
[3]
  GI50: 2.72 µM
  TGI: 14 µM
[4]
  GI50: 2.8 µM
  TGI: 13.8 µM
[5]
  GI50: 2.02 µM
  TGI: 4.34 µM
[6]
  GI50: 2.99 µM
  TGI: 22 µM
[7]
  GI50: 3.17 µM
  TGI: 14.6 µM
[8]
  GI50: 2.02 µM
  TGI: 7.51 µM
[9]
  GI50: 1.64 µM
  TGI: 3.43 µM
[10]
  GI50: 2.33 µM
  TGI: 6.26 µM
